Measurements taken from ChEMBL document CHEMBL1128862, “Tricyclic cephems as inhibitors of human leukocyte elastase. thieno[3,4-c]cepham sulfones and pyrrolo[3,4-c]cepham sulfones” (Bioorg Med Chem Lett, 1995).

Columns and labels:
[1] = Hydrolytic stability at 37 degrees Centigrade in 50 mM phosphate buffer (2 % v/v MeCN as solubilising vehicle) at pH 7.4; format: physicochemical
[2] = molecular target: T1, Neutrophil elastase (Homo sapiens) (UniProt P08246); experiment: Inhibitory activity against human leukocyte elastase (HLE) expressed as second order inhibition rate constant
T1 sequence (whole entry): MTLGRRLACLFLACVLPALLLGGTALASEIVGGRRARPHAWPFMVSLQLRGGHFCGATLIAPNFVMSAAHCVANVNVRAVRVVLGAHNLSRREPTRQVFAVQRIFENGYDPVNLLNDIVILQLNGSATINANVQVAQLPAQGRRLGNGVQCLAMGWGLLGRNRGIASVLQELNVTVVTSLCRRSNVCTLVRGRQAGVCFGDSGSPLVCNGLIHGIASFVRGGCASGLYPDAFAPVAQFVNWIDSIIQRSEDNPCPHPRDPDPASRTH

[3] = Hydrolytic stability at 37 degrees Celsius in 50 mM phosphate buffer (20 % v/v MeCN as solubilising vehicle) at pH 7.4; format: physicochemical

Row | half-life [1] [days] | k on [2] [M⁻¹ s⁻¹] | half-life [3] [days] | Compound
1 | 33.3 | 2100 | – | CO[C@H]1C(=O)N2c3c(cn(C(=O)C(C)(C)C)c3-c3ccccc3)CS(=O)(=O)[C@H]12
2 | 23.8 | 2500 | – | CO[C@H]1C(=O)N2c3c(c[nH]c3-c3ccccc3)CS(=O)(=O)[C@H]12
3 | 9.17 | 80 | – | CO[C@H]1C(=O)N2c3c(csc3C(C)(C)C)CS(=O)(=O)[C@H]12
4 | – | 11000 | > 125 | CO[C@H]1C(=O)N2c3c(cn(-c4ccc([N+](=O)[O-])cc4)c3-c3ccccc3)CS(=O)(=O)[C@H]12
5 | 1.42 | 270 | – | CO[C@H]1C(=O)N2c3c(csc3-c3ccccc3)CS(=O)(=O)[C@H]12
6 | 21.2 | 1300 | – | CO[C@H]1C(=O)N2c3c(c[nH]c3C(C)(C)C)CS(=O)(=O)[C@H]12
